Tests used:
UT-SCC-54C cells [1] = test: Radiosensitisation of UT-SCC-54C HNSCC cells, regrowth (sulforhodamine B) assay, oxic (Table 16); type: cell-based, human; conditions: for IC50: Homo sapiens, read-out: IC50; for S50: compound in combination with 3 Gy of radiation, 50% inhibition of regrowth fraction, UT-SCC-54C; for S50 / radiosensitisation / differential growth inhibition of UT-SCC-54C cells: oxic; for radiosensitisation / differential growth inhibition of UT-SCC-54C cells: 0 or 3 Gy, regrowth assay
UT-SCC-54C cells [2] = test: Radiosensitisation of UT-SCC-54C HNSCC cells, clonogenic survival, oxic and anoxic (Table 18); type: cell-based, human

| Structure (SMILES) | IC50 (UT-SCC-54C cells [1]) [µM] | S50 (UT-SCC-54C cells [1]) [µM] | radiosensitisation / differential growth inhibition of UT-SCC-54C cells (UT-SCC-54C cells [1]) | further results |
| --- | --- | --- | --- | --- |
| Cn1c(=O)n(C2CCCC2)c2cc(Nc3ccc4ncsc4c3)ncc21 [Compound 70, 6-(Benzo[d]thiazol-6-ylamino)-1-cyclopentyl-3-methyl-1,3-dihydro-2H-imidazo[4,5-c]pyridin-2-one] | > 10 | 2.62 | – | – |
| Cc1ccncc1Nc1cc2c(cn1)n(C)c(=O)n2C1CCCC1 [Compound 78, 1-Cyclopentyl-3-methyl-6-((4-methylpyridin-3-yl)amino)-1,3-dihydro-2H-imidazo[4,5-c]pyridin-2-one] | > 10 | 4.09 | – | – |
| COc1ccc(N(C(=O)OCc2ccccc2)c2cc3c(cn2)n(C)c(=O)n3C2CCN(C(=O)OC(C)(C)C)CC2)c(C)c1 [Compound 154, tert-Butyl 4-(6-(((Benzyloxy)carbonyl)(4-methoxy-2-methylphenyl)amino)-3-methyl-2-oxo-2,3-dihydro-1H-imidazo[4,5-c]pyridin-1-yl)piperidine-1-carboxylate] | > 10 | 2.06 | – | – |
| COc1ccc(-n2c(=O)n(C)c3cnc(Nc4ccc(OC)cc4C)cc32)cc1 [Compound 195, 6-((4-Methoxy-2-methylphenyl)amino)-1-(4-methoxyphenyl)-3-methyl-1,3-dihydro-2H-imidazo[4,5-c]pyridin-2-one] | – | – | – | D1 (radiation dose for 1% surviving fraction) (UT-SCC-54C cells [2]; 20% O2, compound conc 0.33 μM): 1.53 Gy; D10 (radiation dose for 10% surviving fraction) (UT-SCC-54C cells [2]; 20% O2, compound conc 0.33 μM): 4.67 Gy; D1 (radiation dose for 1% surviving fraction) (UT-SCC-54C cells [2]; 20% O2, compound conc 1 μM): 2.75 Gy; D10 (radiation dose for 10% surviving fraction) (UT-SCC-54C cells [2]; 20% O2, compound conc 1 μM): 2.60 Gy; D1 (radiation dose for 1% surviving fraction) (UT-SCC-54C cells [2]; 20% O2, compound conc 3 μM): 3.90 Gy; D10 (radiation dose for 10% surviving fraction) (UT-SCC-54C cells [2]; 20% O2, compound conc 3 μM): 1.83 Gy; radiosensitisation, clonogenic survival endpoint (UT-SCC-54C cells [2]; UT-SCC-54C, FIG. 8 and Table 18): concentration-dependent increases in radiosensitisation |
| Cc1cc(OC(C)c2cnc([N+](=O)[O-])n2C)ccc1Nc1cc2c(cn1)n(C)c(=O)n2C1CCOCC1 (stereo not shown) [Compound 238, 3-Methyl-6-((2-methyl-4-(1-(1-methyl-2-nitro-1H-imidazol-5-yl)ethoxy)phenyl)amino)-1-(tetrahydro-2H-pyran-4-yl)-1,3-dihydro-2H-imidazo[4,5-c]pyridin-2-one] | > 10 | >10 | did not display any differential growth inhibition | D1 (radiation dose for 1% surviving fraction) (UT-SCC-54C cells [2]; 0% O2, compound conc 1 μM): 15.0 Gy; D10 (radiation dose for 10% surviving fraction) (UT-SCC-54C cells [2]; 0% O2, compound conc 1 μM): 8.46 Gy; SER1 (sensitiser enhancement ratio at 1% surviving fraction) (UT-SCC-54C cells [2]; 0% O2, compound conc 1 μM): 1.44; SER10 (sensitiser enhancement ratio at 10% surviving fraction) (UT-SCC-54C cells [2]; 0% O2, compound conc 1 μM): 1.65; Plating efficiency drug/no drug (UT-SCC-54C cells [2]; 0% O2, compound conc 1 μM, no radiation): 1.02; sensitisation of UT-SCC-54C cells selectively under anoxia (UT-SCC-54C cells [2]; oxic vs anoxic, clonogenic survival, FIGS. 9 and 10): provide sensitisation of UT-SCC-54C cells selectively under anoxia |
| Cc1cc(OCc2ncc([N+](=O)[O-])n2C)ccc1Nc1cc2c(cn1)n(C)c(=O)n2C1CCOCC1 [Compound 240, 3-Methyl-6-((2-methyl-4-((1-methyl-5-nitro-1H-imidazol-2-yl)methoxy)phenyl)amino)-1-(tetrahydro-2H-pyran-4-yl)-1,3-dihydro-2H-imidazo[4,5-c]pyridin-2-one] | > 10 | >10 | did not display any differential growth inhibition | – |
| COc1ccc(-n2c(=O)n(C)c3cnc(N(C(=O)OCc4cnc([N+](=O)[O-])n4C)c4ccc(OC)cc4C)cc32)cc1 [Compound 259, (1-Methyl-2-nitro-1H-imidazol-5-yl)methyl (4-methoxy-2-methylphenyl)(1-(4-methoxyphenyl)-3-methyl-2-oxo-2,3-dihydro-1H-imidazo[4,5-c]pyridin-6-yl)carbamate] | > 10 | >10 | did not display any differential growth inhibition | – |
